Assay results reported in US11007178B2, “Methods and uses of Nampt activators for treatment of diabetes, cardiovascular diseases, and symptoms thereof” (University of South Florida, priority 2016, dated 2021).

Columns and labels:
[1] = tested on: H9C2 cardiomyoblasts; experiment: NAD levels in H9C2 cardiomyoblasts; format: cell-based; details: H9C2, 10 μM, vs vehicle (1% DMSO) or FK866 (10 nM)
From the text: Nampt, a rate-limiting enzyme, controls the level of NAD+ and protects the heart by stimulating SIRT1. […] The data presented in this Example coupled with previous evidence of the ability of P7C3 to bind and activate Nampt unequivocally indicate that the rescue of arrythmogenic and myopathy changes noted in P7C3 treated db/db mice are in due to activation of Nampt activation, NAD elevation, and stimulation of Nampt-SIRT1 axis.

[2] = tested on: db/db mice; experiment: Intra-peritoneal glucose tolerance test (IPGTT); format: in vivo; details: 10 mg/kg, 4 weeks, vs vehicle
Description: The diabetic model was treated with a vehicle or P7C3 for 4 weeks. Then a glucose tolerance test was conducted.
(§1) To determine the effect of the Nampt activator on blood sugar control and cardiac electrical activity in diabetics, we examined the effects of P7C3,in a diabetic mouse model (db/db mice). Briefly, wild-type or db/db mice were treated with a Nampt activator (P7C3) or control. The Nampt activator or control was administered daily via intraperitoneal (i.p.) injection at about 10 mg/kg.
An insulin tolerance test was also performed after 4 weeks of Nampt activator treatment as previously described.

[3] = tested on: db/db mice; experiment: Serum insulin levels by ELISA; format: in vivo; details: diabetic mice, about 10 mg/kg i.p., 4 weeks, vs vehicle
Description: A Nampt activator, P7C3, was administered and various effects were evaluated. […] Briefly, the dose of P7C3 was about 10 mg/kg and administered i.p. to diabetic mice and the effect on serum insulin, insulin tolerance, blood glucose, and pancreatic beta cell number and insulin granulation in the islets of a diabetic model pancreas. The serum from P7C3 or vehicle treated diabetic mice and measured the insulin levels by ELISA assay.

[4] = tested on: diabetic hearts (db/db); experiment: Langendorff myocardial ischemia-reperfusion injury, diabetic hearts; set-up: species or system mice; details: 4 week treated diabetic hearts, 45 min ischemia, 60 min reperfusion, vs vehicle
[5] = tested on: diabetic mice; experiment: Insulin tolerance test (ITT); format: in vivo; details: about 10 mg/Kg daily, 4 weeks, insulin 5 U/Kg i.v.
Description: Diabetic mice were utilized and treated with P7C3 for 4 weeks with a daily dose of about 10 mg/Kg P7C3 or vehicle. Thereafter, ITT (insulin tolerance test) was performed by injecting insulin 5 U/Kg body weight i.v. Blood glucose levels were monitored as shown in FIGS. 9A-9B.

[6] = tested on: db/db mice; experiment: Echocardiography, cardiomyopathy and cardiac performance; format: in vivo
From the text: A similar increase (p<0.05) in pulmonary VTI was also noted in the 20 week db/db mice when compared with WT controls. […] A similar increase in M-mode short axis measurements in 20 week db/db was also noted in left ventricular internal dimension (LVID) at both systole and diastole. […] This increase in LVID is indicative of increased heart size when compared with Wt controls.

[7] = tested on: db/db mice; experiment: ECG, cardiac electrical abnormalities; format: in vivo; details: 20 week old, vs vehicle treated db/db
Description: as §1

[8] = tested on: db/db mice; experiment: NADH/NAD ratio in diabetic model; format: in vivo; details: 4 weeks treatment, vs vehicle
[9] = tested on: db/db mice; experiment: Blood sugar level in diabetic mouse model over 4 weeks; format: in vivo; details: 10 mg/kg i.p. daily
Description: as §1

[10] = tested on: pancreatic islet β-cells of diabetic mice; experiment: Pancreatic islets and beta cells, Gomori staining; format: in vivo; details: 10 mg/Kg daily, 4 weeks, vs vehicle
Description: Additionally diabetic mice were treated with P7C3 for 4 weeks with daily dose of 10 mg/Kg with P7C3 or vehicle. Thereafter, the pancreas was collected at necropsy and cryosectioned, the cross sections were stained for visualizing the damage of β-cells in diabetes and rescue by P7C3. […] P<0.01. ** indicates […] between Vehicle and P7C3 groups and *** indicates P<0.001 Vehicle and P7C3 groups as determined by a one-way ANOVA followed by Tukey test.

[11] = tested on: wild-type C57 hearts; experiment: Langendorff myocardial ischemia-reperfusion injury, wild-type hearts; set-up: species or system mouse; details: 10 μM, 45 min ischemia, 60 min reperfusion, vs vehicle
Description: Following a 45 minutes of ischemia in the wild type mouse hearts we utilized P7C3 and allowed reperfusion for first 30 minutes of reperfusion period during a 60 minutes reperfusion phase. […] Red portion of the stain in FIGS. 12A and 12C can indicate viable tissue, where as white or pale colored areas are infarcted areas. Qualification for the infract size is depicted in the accompanying bar graphs in each panel. ***p<0.0001, **p<0.001, vehicle vs. P7C3 in each group.

[12] = tested on: pancreatic islet β-cells of diabetic mice; experiment: Immunohistochemical staining for insulin in pancreatic beta-islets; format: in vivo; details: vs vehicle
[13] = tested on: Wt mouse heart; experiment: Ex vivo lactate perfusion of heart, ventricular arrhythmia; details: 2 out of 5 mice, control 0%
From the text: Cardiac elevation of NADH through ex vivo lactate perfusion of Wt mouse heart increases the incidence of ventricular arrhythmia by 40% (2 out of 5 mice) (FIGS. 5A and 5B).

[14] = diabetic mice, 4 week treatment

NC(=O)c1ccc[n+]([C@@H]2O[C@H](COP(=O)([O-])O)[C@@H](O)[C@H]2O)c1 [NMN, nicotinamide mononucleotide, reference compound]
NAD levels [1]: significantly (P<0.01) increases

OC(CNc1ccccc1)Cn1c2ccc(Br)cc2c2cc(Br)ccc21 (stereo not shown) [P7C3]
glucose tolerance after 2 hour glucose load [2]: increased glucose tolerance | insulin release after glucose load [2]: significantly (P<0.001) increased | serum insulin levels [3]: increased | protection from myocardial ischemia-reperfusion injury (infarct size) [4]: cardioprotective effect | insulin sensitivity (insulin tolerance test, blood glucose) [5]: improved insulin sensitivity | cardiomyopathy ([6]; 4 week treatment): partial rescue | IVRT (isovolumic relaxation time) ([6]; P7C3 treated diabetic mice): improvement in cardiac performance | MPI (myocardial performance index) ([6]; P7C3 treated diabetic mice): improvement in cardiac performance | LV mass ([6]; db/db mice): smaller increase | aortic VTI ([6]; db/db mice, 4-week treatment): much less of an increase | pulmonary VTI ([6]; db/db mice, 4-week treatment): much less of an increase | left ventricular internal dimension (LVID) ([6]; db/db mice, particularly at the diastole): much less increase | % ejection fraction [6, 14]: significantly (p<0.05) decreased | % fractional shortening [6, 14]: significantly (p<0.05) decreased | QRS interval [7]: significantly reduced (p<0.001) back to Wt levels | QT interval [7]: significantly reduced (p<0.001) back to Wt levels | QTc interval [7]: significantly reduced (p<0.001) back to Wt levels | NAD levels [1]: significantly (P<0.01) increases | NADH/NAD ratio [8]: significantly attenuated | net reduction in blood sugar levels [9]: 173.2 mg/dL | blood sugar level ([9]; at 4 weeks, vehicle db/db 467.5±34.2, wild type 209.8±6.1): 214.5 ± 16.9 mg/dL | beta cells per section [10]: significant improvement | number of beta cells per islet [10]: improved | number of pancreatic islets in a unit area of the pancreas [10]: improved | protection from myocardial ischemia-reperfusion injury (infarct size) [11]: cardioprotective effect | insulin positive beta-cells per islet area [12]: increased insulin production

lactate
incidence of ventricular arrhythmia [13]: 40%
